Values after ≈ are worked out from the molar mass of the structure shown. Active and inactive are the calls of the source.

In general, MIC refers to the smallest concentration in the dilution series that meets the test's criterion for growth inhibition. A low value points to inhibition by little substance.

One assay concerns Enterococcus faecalis. Nature of the assay: Bactericidal activity against multidrug resistant Enterococcus faecalis ATCC 51299 assessed as inhibition of bacterial growth by measuring ratio of MBC to MIC. The assay is classed as functional.
Conditions: not given
With `CCCCCCc1c(-c2ccc(OCCCCNCCCN)cc2OCCCCNCCCN)oc2cc(OC)cc(O)c2c1=O`, the Ratio is recorded as less than 4.

A further assay concerns Enterococcus faecalis. Nature of the assay: Antibacterial activity in multidrug resistant Enterococcus faecalis ATCC 51299 at sub-MIC measured after 20 passages. The assay is classed as functional, organism-based.
Conditions: not given
For `CCCCCCc1c(-c2ccc(OCCCCNCCCN)cc2OCCCCNCCCN)oc2cc(OC)cc(O)c2c1=O`, the result was Active.

In another assay the test system is Cell membrane. Nature of the assay: Induction of cell membrane damage in methicillin resistant Staphylococcus aureus clinical isolate 003 assessed as increase in green fluorescence at 2 to 4 times MIC by SYTOX Green dye based analysis.
Conditions: not given
The assay is classed as cell membranes.
As for `CCCCCCc1c(-c2ccc(OCCCCNCCCN)cc2OCCCCNCCCN)oc2cc(OC)cc(O)c2c1=O`, the outcome was Active.

The subject of a further assay is Staphylococcus aureus. Description: Antibacterial activity against methicillin-resistant Staphylococcus aureus clinical isolate 003 at 2 to 4 times MIC measured after 8 to 12 hrs by time-kill assay. The assay is classed as functional, organism-based. Conditions: time 8-12 hrs.
For the molecule `CCCCCCc1c(-c2ccc(OCCCCNCCCN)cc2OCCCCNCCCN)oc2cc(OC)cc(O)c2c1=O`, the result was Active.

A further assay has as its system Cell membrane. Description: Induction of membrane depolarization in multidrug resistant Enterococcus faecalis ATCC 51299 assessed as increase in fluorescence intensity at 2 to 4 times MIC by DiSC3(5) dye based analysis.
Conditions: not given
In the case of `CCCCCCc1c(-c2ccc(OCCCCNCCCN)cc2OCCCCNCCCN)oc2cc(OC)cc(O)c2c1=O`, the Activity result is “Dose-Dependent Effect”.

The next assay deals with Staphylococcus aureus. Description: Antibacterial activity against methicillin resistant Staphylococcus aureus clinical isolate 031. The assay is classed as functional.
Conditions: not given
For the molecule `CCCCCCc1c(-c2ccc(OCCCCNCCCN)cc2OCCCCNCCCN)oc2cc(OC)cc(O)c2c1=O`, the minimum inhibitory concentration (MIC) was 0.25 µg/mL (≈ 0.39 µM).

A further assay concerns Cell membrane. Description: Induction of cell membrane damage in multidrug resistant Enterococcus faecalis ATCC 51299 assessed as bacterial death at 2 to 4 times MIC by confocal laser scanning microscopy. The assay is classed as cell membranes.
Conditions: not given
Take `CCCCCCc1c(-c2ccc(OCCCCNCCCN)cc2OCCCCNCCCN)oc2cc(OC)cc(O)c2c1=O`: the outcome was Active.

Another assay has as its system Cell membrane. Nature of the assay: Induction of membrane depolarization in methicillin resistant Staphylococcus aureus clinical isolate 003 assessed as increase in fluorescence intensity at 2 to 4 times MIC by DiSC3(5) dye based analysis.
Conditions: not given
For `CCCCCCc1c(-c2ccc(OCCCCNCCCN)cc2OCCCCNCCCN)oc2cc(OC)cc(O)c2c1=O`, the Activity entry was “Dose-Dependent Effect”.

Another assay has as its system Staphylococcus aureus. Nature of the assay: Antibiofilm activity in methicillin resistant Staphylococcus aureus clinical isolate 003 assessed as inhibition of biofilm formation at 4 times MIC by crystal violet staining based analysis relative to control. The assay is classed as functional.
Conditions: not given
Consider `CCCCCCc1c(-c2ccc(OCCCCNCCCN)cc2OCCCCNCCCN)oc2cc(OC)cc(O)c2c1=O`, for which the “inhibition (INH)” value is listed as more than 90%.

For the next assay, the system named is Cell membrane. Description: Disruption of membrane permeability in methicillin resistant Staphylococcus aureus clinical isolate 003 assessed as increase in malondialdehyde level.
Conditions: not given
As for `CCCCCCc1c(-c2ccc(OCCCCNCCCN)cc2OCCCCNCCCN)oc2cc(OC)cc(O)c2c1=O`, the result was Active.

The subject of the next assay is Staphylococcus aureus. Description: Antibacterial activity against Staphylococcus aureus clinical isolate 31. The assay is classed as functional.
Conditions: not given
Turning to `CCCCCCc1c(-c2ccc(OCCCCNCCCN)cc2OCCCCNCCCN)oc2cc(OC)cc(O)c2c1=O`, the MIC was determined as 0.25 µg/mL (≈ 0.39 µM).

Another assay deals with Cell membrane. Description: Disruption of membrane permeability in multidrug resistant Enterococcus faecalis ATCC 51299 assessed as protein leakage at 2 to 4 times MIC.
Conditions: not given
The assay is classed as cell membranes.
On to `CCCCCCc1c(-c2ccc(OCCCCNCCCN)cc2OCCCCNCCCN)oc2cc(OC)cc(O)c2c1=O`, for which the outcome was Active.

The subject of the next assay is Cell membrane. Nature of the assay: Induction of membrane damage in methicillin resistant Staphylococcus aureus clinical isolate 003 assessed as deformation of bacterial surface at 2 to 4 times MIC by SEM analysis. The assay is classed as cell membranes.
Conditions: not given
For the molecule `CCCCCCc1c(-c2ccc(OCCCCNCCCN)cc2OCCCCNCCCN)oc2cc(OC)cc(O)c2c1=O`, the outcome was Active.

Another assay has as its system Enterococcus faecalis. Description: Antibiofilm activity in multidrug resistant Enterococcus faecalis ATCC 51299 assessed as reduction in biofilm density at 0.5 to 4 times MIC measured after 24 hrs by inverted fluorescence microscopic analysis. The assay is classed as functional, organism-based.
Conditions: not given
With `CCCCCCc1c(-c2ccc(OCCCCNCCCN)cc2OCCCCNCCCN)oc2cc(OC)cc(O)c2c1=O`, the Activity result was “Dose-Dependent Effect”.

The next assay deals with Enterococcus faecalis. Nature of the assay: Antibiofilm activity in multidrug resistant Enterococcus faecalis ATCC 51299 assessed as destruction of biofilm integrity at 0.5 to 4 times MIC measured after 24 hrs by inverted fluorescence microscopic analysis. The assay is classed as functional, organism-based.
Conditions: not given
Turning to `CCCCCCc1c(-c2ccc(OCCCCNCCCN)cc2OCCCCNCCCN)oc2cc(OC)cc(O)c2c1=O`, the Activity entry is “Dose-Dependent Effect”.

For a further assay, the system named is Staphylococcus aureus. Nature of the assay: Antibiofilm activity in methicillin resistant Staphylococcus aureus clinical isolate 003 assessed as biofilm clearance rate at 4 times MIC by crystal violet staining based analysis relative to control. The assay is classed as functional.
Conditions: not given
Consider `CCCCCCc1c(-c2ccc(OCCCCNCCCN)cc2OCCCCNCCCN)oc2cc(OC)cc(O)c2c1=O`, for which the Activity is approximately 80%.

The test system of another assay is Staphylococcus aureus. Nature of the assay: Antibiofilm activity in methicillin resistant Staphylococcus aureus clinical isolate 003 assessed as biofilm clearance at 0.5 to 4 times MIC by crystal violet staining based analysis. The assay is classed as functional, organism-based.
Conditions: not given
Regarding `CCCCCCc1c(-c2ccc(OCCCCNCCCN)cc2OCCCCNCCCN)oc2cc(OC)cc(O)c2c1=O`, the Activity entry is “Dose-Dependent Effect”.

A further assay deals with Staphylococcus aureus. Description: Antibiofilm activity in methicillin resistant Staphylococcus aureus clinical isolate 003 assessed as reduction in biofilm density at 0.5 to 4 times MIC measured after 24 hrs by inverted fluorescence microscopic analysis. The assay is classed as functional, organism-based.
Conditions: not given
Turning to `CCCCCCc1c(-c2ccc(OCCCCNCCCN)cc2OCCCCNCCCN)oc2cc(OC)cc(O)c2c1=O`, the Activity entry was “Dose-Dependent Effect”.

For the next assay, the system named is Cell membrane. Description: Disruption of membrane permeability in methicillin resistant Staphylococcus aureus clinical isolate 003 assessed as protein leakage at 2 to 4 times MIC.
Conditions: not given
On to `CCCCCCc1c(-c2ccc(OCCCCNCCCN)cc2OCCCCNCCCN)oc2cc(OC)cc(O)c2c1=O`, for which the outcome was Active.

The subject of another assay is Cell membrane. Nature of the assay: Induction of cell membrane damage in methicillin resistant Staphylococcus aureus clinical isolate 003 assessed as bacterial death at 2 to 4 times MIC by confocal laser scanning microscopy. The assay is classed as cell membranes.
Conditions: not given
For `CCCCCCc1c(-c2ccc(OCCCCNCCCN)cc2OCCCCNCCCN)oc2cc(OC)cc(O)c2c1=O`, the outcome was Active.

The next assay relates to Staphylococcus aureus. Description: Antibacterial activity against methicillin resistant Staphylococcus aureus clinical isolate 003 in presence of phosphatidylglycerol. The assay is classed as functional, organism-based.
Conditions: not given
As for `CCCCCCc1c(-c2ccc(OCCCCNCCCN)cc2OCCCCNCCCN)oc2cc(OC)cc(O)c2c1=O`, the outcome was inactive.

The next assay relates to Staphylococcus aureus. Description: Antibacterial activity against methicillin resistant Staphylococcus aureus clinical isolate 003 in presence of peptidoglycan. The assay is classed as functional, organism-based.
Conditions: not given
As to `CCCCCCc1c(-c2ccc(OCCCCNCCCN)cc2OCCCCNCCCN)oc2cc(OC)cc(O)c2c1=O`, the result was Active.
